Reference: patent US8071586B2, “Heterocyclyl compounds” (Hoffmann-La Roche Inc., priority 2008, dated 2011)

These molecules were tested against T1, human chemokine receptor 2 isoform B (CCR2) (Homo sapiens, UniProt P41597) (assay: Calcium mobilization assay (FLIPR, MCP-1 stimulated CHOK1-CCR2B-A5 cells)). Settings: Ca mobilisation assay, CCR2 antagonist activity, inhibition of MCP-1 induced calcium increase.
T1 sequence (P41597 1-360 isoform P41597-2): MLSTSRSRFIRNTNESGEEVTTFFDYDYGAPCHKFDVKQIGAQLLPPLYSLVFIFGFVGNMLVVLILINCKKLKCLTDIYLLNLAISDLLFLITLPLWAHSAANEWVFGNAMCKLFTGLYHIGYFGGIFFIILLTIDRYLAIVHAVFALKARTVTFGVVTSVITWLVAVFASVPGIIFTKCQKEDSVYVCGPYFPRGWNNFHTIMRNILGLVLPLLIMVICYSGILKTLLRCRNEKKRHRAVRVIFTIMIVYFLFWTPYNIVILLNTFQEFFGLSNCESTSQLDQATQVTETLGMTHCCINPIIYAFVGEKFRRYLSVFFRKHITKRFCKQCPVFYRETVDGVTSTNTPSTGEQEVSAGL
Type: cell-based
Method: Calcium Mobilization Assay
CHOK1-CCR2B-A5 cells (from Euroscreen) stably overexpressing the human chemokine receptor 2 isoform B were cultured in Nutrient Hams F12 medium supplemented with 5% FBS, 100 U/ml penicillin, 100 μg/ml streptomycin, 400 μg/ml G418 and 5 μg/ml puromycin.
For the assay cells were grown overnight in 384-well black clear flat bottom polystyrene plates (Costar) at 37° C. at 5% CO2. After washing with DMEM, 20 mM Hepes, 2.5 mM probenecid, 0.1% BSA (DMEM assay buffer) cells were loaded with 4 μM Fluo-4 in the same DMEM assay buffer for 2 hours at 30° C. Excess dye was removed and cells were washed with DMEM assay buffer. 384-well compound plates were prepared with DMEM assay buffer/0.5% DMSO with or without various concentrations of test compounds. Usually compounds were tested for agonist and antagonist activity.
Test compounds were added to the assay plate and agonist activity was monitored as fluorescence for 80 seconds with a FLIPR (488 nm excitation; 510-570 nm emission; Molecular Devices). After 20-30 min. of incubation at 30° C., […] MCP-1 (R&D; Roche) was added and fluorescence was monitored again for 80 seconds. Increases in intracellular calcium are reported as maximum fluorescence after agonist exposure minus basal fluorescence before exposure. Antagonist activity is indicated as inhibitor concentration required for 50% inhibition of specific calcium increases.
Molecule `C[C@H]1C(=O)N(CCCN2CCCCC2)CCN1C(=O)Nc1ccc(Cl)c(Cl)c1` [Example 37, (S)-2-Methyl-3-oxo-4-(3-piperidin-1-yl-propyl)-piperazine-1-carboxylic acid (3,4-dichloro-phenyl)-amide] has an IC50 of 0.05 µM.
Work on `C[C@H]1C(=O)N(CCCN2CCCCC2)CCN1C(=O)Nc1ccc(-c2ccccc2)cc1` [Example 38, (S)-2-Methyl-3-oxo-4-(3-piperidin-1-yl-propyl)-piperazine-1-carboxylic acid biphenyl-4-ylamide] yielded an IC50 of 0.21 µM.
Molecule `C[C@H]1C(=O)N(CCCN2CCCCC2)CCN1C(=O)Nc1ccc2ccccc2c1` [Example 40, (S)-2-Methyl-3-oxo-4-(3-piperidin-1-yl-propyl)-piperazine-1-carboxylic acid naphthalen-2-ylamide] has an IC50 of 0.36 µM.
`C[C@H]1C(=O)N(CCCN2CCCCC2)CCN1C(=O)Nc1ccc(F)c(Cl)c1` [Example 42, (S)-2-Methyl-3-oxo-4-(3-piperidin-1-yl-propyl)-piperazine-1-carboxylic acid (3-chloro-4-fluoro-phenyl)-amide] gave an IC50 of 0.11 µM.
`C[C@H]1C(=O)N(CCCN2CCCCC2)CCN1C(=O)Nc1cccc(-c2ccccc2)c1` [Example 43, (S)-2-Methyl-3-oxo-4-(3-piperidin-1-yl-propyl)-piperazine-1-carboxylic acid biphenyl-3-ylamide] was tested, and the IC50 was 0.61 µM.
`C[C@H]1C(=O)N(CCCN2CCC3(CC3)[C@H](O)C2)CCN1C(=O)Nc1ccc(Cl)c(Cl)c1` [Example 45, (S)-4-[3-((S)-4-Hydroxy-6-aza-spiro[2.5]oct-6-yl)-propyl]-2-methyl-3-oxo-piperazine-1-carboxylic acid (3,4-dichloro-phenyl)-amide] gave an IC50 of 0.002 µM.
In the case of `C[C@H]1C[C@H](O)CN(CCCN2CCN(C(=O)Nc3ccc(Cl)c(Cl)c3)[C@@H](C)C2=O)C1` [Example 46, (S)-4-[3-((3S,5S)-3-Hydroxy-5-methyl-piperidin-1-yl)-propyl]-2-methyl-3-oxo-piperazine-1-carboxylic acid (3,4-dichloro-phenyl)-amide], the IC50 is reported as 0.007 µM.
In the case of `C[C@H]1CCN(CCCN2CCN(C(=O)Nc3ccc(Cl)c(Cl)c3)[C@@H](C)C2=O)C[C@H]1O` [Example 47, (S)-4-[3-((3S,4S)-3-Hydroxy-4-methyl-piperidin-1-yl)-propyl]-2-methyl-3-oxo-piperazine-1-carboxylic acid (3,4-dichloro-phenyl)-amide], the IC50 is reported as 0.007 µM.
In the case of `C[C@H]1C(=O)N(CCCN2CCC[C@@H](O)C2)CCN1C(=O)Nc1ccc(Cl)c(Cl)c1` [Example 48, (S)-4-[3-((R)-3-Hydroxy-piperidin-1-yl)-propyl]-2-methyl-3-oxo-piperazine-1-carboxylic acid (3,4-dichloro-phenyl)-amide], the IC50 is reported as 0.37 µM.
With `C[C@H]1C(=O)N(CCCN2CCC(O)CC2)CCN1C(=O)Nc1ccc(Cl)c(Cl)c1` [Example 49, (S)-4-[3-(4-Hydroxy-piperidin-1-yl)-propyl]-2-methyl-3-oxo-piperazine-1-carboxylic acid (3,4-dichloro-phenyl)-amide] the IC50 was 0.16 µM.
Work on `C[C@H]1C(=O)N(CCCN2CCC[C@H]2CO)CCN1C(=O)Nc1ccc(Cl)c(Cl)c1` [Example 50, (S)-4-[3-((S)-2-Hydroxymethyl-pyrrolidin-1-yl)-propyl]-2-methyl-3-oxo-piperazine-1-carboxylic acid (3,4-dichloro-phenyl)-amide] yielded an IC50 of 0.12 µM.
`O=C(NCc1ccc(Cl)c(Cl)c1)N1CCC(=O)N([C@H](CO)CCN2CCC3(CC3)[C@H](O)C2)CC1` [Example 51, 4-[(S)-3-((S)-4-hydroxy-6-aza-spiro[2.5]oct-6-yl)-1-hydroxymethyl-propyl]-5-oxo-[1,4]diazepane-1-carboxylic acid 3,4-dichloro-benzylamide] gave an IC50 of 0.25 µM.
`O=C(NCc1ccc(Cl)c(Cl)c1)OC[C@H](CCN1CCC2(CC2)[C@H](O)C1)N1CCN(C(=O)NCc2ccc(Cl)c(Cl)c2)CCC1=O` [Example 52, (3,4-dichloro-benzyl)-carbamic acid (S)-2-[4-(3,4-dichloro-benzylcarbamoyl)-7-oxo-[1,4]diazepan-1-yl]-4-((S)-4-hydroxy-6-aza-spiro[2.5]oct-6-yl)-butyl ester] showed an IC50 of 0.96 µM.
Molecule `O=C(Nc1ccc(Cl)c(Cl)c1)N1CCC(=O)N([C@H](CO)CCN2CCC3(CC3)[C@H](O)C2)CC1` [Example 53, 4-[(S)-3-((S)-4-Hydroxy-6-aza-spiro[2.5]oct-6-yl)-1-hydroxymethyl-propyl]-5-oxo-[1,4]diazepane-1-carboxylic acid (3,4-dichloro-phenyl)-amide] has an IC50 of 0.001 µM.
For `O=C1CCN(C(=O)Nc2ccc(Cl)c(Cl)c2)CCN1CCCN1CCC2(CC2)[C@H](O)C1` [Example 54, 4-[3-((S)-4-Hydroxy-6-aza-spiro[2.5]oct-6-yl)-propyl]-5-oxo-[1,4]diazepane-1-carboxylic acid (3,4-dichloro-phenyl)-amide], the IC50 was 0.006 µM.
`COCC(CCN1CCC2(CC2)[C@H](O)C1)N1CCN(C(=O)Nc2ccc(Cl)c(Cl)c2)CCC1=O` (stereo partly drawn) [Example 55, (R,S)-4-[3-((S)-4-Hydroxy-6-aza-spiro[2.5]oct-6-yl)-1-methoxymethyl-propyl]-5-oxo-[1,4]diazepane-1-carboxylic acid (3,4-dichloro-phenyl)-amide] showed an IC50 of 0.004 µM.
With `COC[C@H](CCN1CCC2(CC2)[C@H](O)C1)N1CCN(C(=O)Nc2ccc(Cl)c(Cl)c2)CCC1=O` [Example 56, 4-[(S)-3-((S)-4-hydroxy-6-aza-spiro[2.5]oct-6-yl)-1-methoxymethyl-propyl]-5-oxo-[1,4]diazepane-1-carboxylic acid (3,4-dichloro-phenyl)-amide] the IC50 was 0.002 µM.
For `COC[C@@H](CCN1CCC2(CC2)[C@H](O)C1)N1CCN(C(=O)Nc2ccc(Cl)c(Cl)c2)CCC1=O` [Example 57, 4-[(R)-3-((S)-4-hydroxy-6-aza-spiro[2.5]oct-6-yl)-1-methoxymethyl-propyl]-5-oxo-[1,4]diazepane-1-carboxylic acid (3,4-dichloro-phenyl)-amide], the IC50 was 0.24 µM.
For `C[C@@H]1CN(CCCN2CCC3(CC3)[C@H](O)C2)C(=O)CCN1C(=O)Nc1ccc(Cl)c(Cl)c1` [Example 58, (R)-4-[3-((S)-4-Hydroxy-6-aza-spiro[2.5]oct-6-yl)-propyl]-2-methyl-5-oxo-[1,4]diazepane-1-carboxylic acid (3,4-dichloro-phenyl)-amide], the IC50 was 0.003 µM.
In the case of `C[C@@H]1CN(CCCN2CCC3(CC3)[C@H](O)C2)C(=O)CCN1C(=O)Nc1cccc(Cl)c1` [Example 60, (R)-4-[3-((S)-4-Hydroxy-6-aza-spiro[2.5]oct-6-yl)-propyl]-2-methyl-5-oxo-[1,4]diazepane-1-carboxylic acid (3-chloro-phenyl)-amide], the IC50 is reported as 0.06 µM.
`Cc1ccc(NC(=O)N2CCC(=O)N(CCCN3CCC4(CC4)[C@H](O)C3)C[C@H]2C)cc1C` [Example 61, (R)-4-[3-((S)-4-Hydroxy-6-aza-spiro[2.5]oct-6-yl)-propyl]-2-methyl-5-oxo-[1,4]diazepane-1-carboxylic acid (3,4-dimethyl-phenyl)-amide] gave an IC50 of 0.21 µM.
Work on `COC(=O)[C@H](CCN1CCC2(CC2)[C@H](O)C1)N1C[C@@H](C)N(C(=O)Nc2cccc(Cl)c2)CCC1=O` [Example 62, (S)-2-[(R)-4-(3-Chloro-phenylcarbamoyl)-3-methyl-7-oxo-[1,4]diazepan-1-yl]-4-((S)-4-hydroxy-6-aza-spiro[2.5]oct-6-yl)-butyric acid methyl ester] yielded an IC50 of 0.03 µM.
Molecule `C[C@H]1C(=O)N(CCCN2CCC3(CC3)[C@H](O)C2)CCN1C(=O)Nc1cccc(Cl)c1` [Example 69, (S)-4-[3-((S)-4-Hydroxy-6-aza-spiro[2.5]oct-6-yl)-propyl]-2-methyl-3-oxo-piperazine-1-carboxylic acid (3-chloro-phenyl)-amide] has an IC50 of 0.005 µM.
For `C[C@H]1C(=O)N(CCCN2CCC3(CC3)[C@H](O)C2)CCN1C(=O)Nc1ccc(F)c(Cl)c1` [Example 70, (S)-4-[3-((S)-4-Hydroxy-6-aza-spiro[2.5]oct-6-yl)-propyl]-2-methyl-3-oxo-piperazine-1-carboxylic acid (3-chloro-4-fluoro-phenyl)-amide], the IC50 was 0.004 µM.
For `C[C@H]1C(=O)N(CCCN2CCC3(CC3)[C@H](O)C2)CCN1C(=S)Nc1ccc(Cl)c(Cl)c1` [Example 71, (S)-4-[3-((S)-4-Hydroxy-6-aza-spiro[2.5]oct-6-yl)-propyl]-2-methyl-3-oxo-piperazine-1-carbothioic acid (3,4-dichloro-phenyl)-amide], the IC50 was 0.002 µM.
Work on `C[C@H]1C(=O)N(CCCN2CCC3(CC3)[C@H](O)C2)CCN1C(=O)Nc1ccc(Cl)cc1` [Example 72, (S)-4-[3-((S)-4-Hydroxy-6-aza-spiro[2.5]oct-6-yl)-propyl]-2-methyl-3-oxo-piperazine-1-carboxylic acid (4-chloro-phenyl)-amide] yielded an IC50 of 0.008 µM.
